“And” between values parts separate entries of the source, which are not always exact repeats. Equal entries are not always repeated. Toxic doses and inconclusive results are not listed.
Test system: L1210 leukemia ip in BDF1 mice, survival T/C
Assay: NCI In Vivo Anticancer Drug Screen. Data for tumor model L1210 Leukemia (intraperitoneal) in B6D2F1 (BDF1) mice
Conditions: endpoint: mean survival time, higher = longer survival
Outline: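 Ratio derived from survival: compound-dosed mice over vehicle-dosed mice, all bearing a transplantable tumor.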

O=NN(CCCl)C(=O)N[C@H]1CCCC[C@@H]1Cl
T/C (dose: 3.0 mg/kg/injection, schedule: Q## X024 (ip), vehicle: other): 103 % of control
T/C (dose: 3.0 mg/kg/injection, schedule: Q## X024 (oral), vehicle: other): 114 % of control
T/C (dose: 3.35 mg/kg/injection, schedule: Q01DX015 (ip), vehicle: other): 116 % of control
T/C (dose: 5.0 mg/kg/injection, schedule: Q01DX015 (ip), vehicle: other): 173 % of control
T/C (dose: 6.0 mg/kg/injection, schedule: Q01DX001 (oral), vehicle: other): 116 % of control
T/C (dose: 6.0 mg/kg/injection, schedule: Q01DX001 (sc), vehicle: other): 123 % of control
T/C (dose: 6.0 mg/kg/injection, schedule: Q## X008 (oral), vehicle: other): 122 % of control
T/C (dose: 6.7 mg/kg/injection, schedule: Q02DX008 (ip), vehicle: other): 162 % of control and 208 % of control
T/C (dose: 7.6 mg/kg/injection, schedule: Q01DX015 (ip), vehicle: other): 277 % of control
T/C (dose: 7.62 mg/kg/injection, schedule: Q01DX015 (ip), vehicle: other): 485 % of control
T/C (dose: 8.0 mg/kg/injection, schedule: Q01DX001 (ip), vehicle: carboxymethylcellulose (CMC)): 119 % of control
T/C (dose: 10.2 mg/kg/injection, schedule: Q02DX008 (ip), vehicle: other): 242 % of control and 558 % of control
T/C (dose: 11.4 mg/kg/injection, schedule: Q01DX015 (ip), vehicle: other): 348 % of control and 478 % of control
T/C (dose: 12.0 mg/kg/injection, schedule: Q01DX001 (ip), vehicle: other): 203 % of control
T/C (dose: 12.0 mg/kg/injection, schedule: Q## X008 (oral), vehicle: other): 117 % of control
T/C (dose: 13.4 mg/kg/injection, schedule: Q## X004 (ip), vehicle: other): 291 % of control and 500 % of control
T/C (dose: 13.75 mg/kg/injection, schedule: Q01DX001 (oral), vehicle: other): 150 % of control and 164 % of control
T/C (dose: 13.75 mg/kg/injection, schedule: Q## X001 (oral), vehicle: other): 200 % of control
T/C (dose: 15.0 mg/kg/injection, schedule: Q01DX001 (ip), vehicle: other): 187 % of control
T/C (dose: 15.0 mg/kg/injection, schedule: Q01DX005 (ip), vehicle: other): 476 % of control
T/C (dose: 15.0 mg/kg/injection, schedule: Q01DX009 (ip), vehicle: other): 408 % of control
T/C (dose: 15.0 mg/kg/injection, schedule: Q01DX009 (sc), vehicle: other): 365 % of control
T/C (dose: 15.0 mg/kg/injection, schedule: Q## X003 (ip), vehicle: other): 476 % of control
T/C (dose: 15.24 mg/kg/injection, schedule: Q02DX008 (ip), vehicle: other): 501 % of control
T/C (dose: 15.25 mg/kg/injection, schedule: Q01DX001 (ip), vehicle: other): 323 % of control
T/C (dose: 15.25 mg/kg/injection, schedule: Q## X001 (ip), vehicle: other): 156 % of control
T/C (dose: 16.0 mg/kg/injection, schedule: Q## X032 (ip), vehicle: other): 209 % of control
T/C (dose: 17.0 mg/kg/injection, schedule: Q01DX015 (ip), vehicle: other): 330 % of control and 527 % of control
T/C (dose: 18.0 mg/kg/injection, schedule: Q01DX001 (ip), vehicle: carboxymethylcellulose (CMC)): 183 % of control
T/C (dose: 19.0 mg/kg/injection, schedule: Q01DX001 (ip), vehicle: carboxymethylcellulose (CMC)): 160 % of control
T/C (dose: 20.4 mg/kg/injection, schedule: Q## X004 (ip), vehicle: other): 590 % of control
T/C (dose: 22.8 mg/kg/injection, schedule: Q02DX008 (ip), vehicle: other): 433 % of control and 545 % of control
T/C (dose: 24.0 mg/kg/injection, schedule: Q01DX001 (ip), vehicle: other): 476 % of control
T/C (dose: 24.0 mg/kg/injection, schedule: Q01DX001 (oral), vehicle: other): 275 % of control
T/C (dose: 24.0 mg/kg/injection, schedule: Q01DX001 (sc), vehicle: other): 267 % of control
T/C (dose: 24.0 mg/kg/injection, schedule: Q## X008 (oral), vehicle: other): 165 % of control
T/C (dose: 24.0 mg/kg/injection, schedule: Q## X024 (oral), vehicle: other): 270 % of control
T/C (dose: 24.0 mg/kg/injection, schedule: Q## X032 (ip), vehicle: other): 470 % of control
T/C (dose: 26.0 mg/kg/injection, schedule: Q01DX001 (ip), vehicle: carboxymethylcellulose (CMC)): 209 % of control and 243 % of control
T/C (dose: 27.0 mg/kg/injection, schedule: Q01DX001 (ip), vehicle: other): 409 % of control
T/C (dose: 27.5 mg/kg/injection, schedule: Q01DX001 (oral), vehicle: other): 263 % of control and 297 % of control
T/C (dose: 27.5 mg/kg/injection, schedule: Q## X001 (oral), vehicle: other): 438 % of control
T/C (dose: 28.0 mg/kg/injection, schedule: Q## X001 (oral), vehicle: other): 340 % of control
T/C (dose: 30.0 mg/kg/injection, schedule: Q01DX005 (ip), vehicle: other): 203 % of control
T/C (dose: 30.0 mg/kg/injection, schedule: Q01DX005 (oral), vehicle: other): 255 % of control
T/C (dose: 30.0 mg/kg/injection, schedule: Q01DX009 (ip), vehicle: other): 121 % of control
T/C (dose: 30.0 mg/kg/injection, schedule: Q01DX009 (sc), vehicle: other): 200 % of control
T/C (dose: 30.0 mg/kg/injection, schedule: Q## X003 (ip), vehicle: other): 357 % of control
T/C (dose: 30.0 mg/kg/injection, schedule: Q## X003 (oral), vehicle: other): 452 % of control
T/C (dose: 30.5 mg/kg/injection, schedule: Q01DX001 (ip), vehicle: carboxymethylcellulose (CMC)): 303 % of control
T/C (dose: 30.5 mg/kg/injection, schedule: Q01DX001 (ip), vehicle: other): 186 % of control and 230 % of control
T/C (dose: 30.5 mg/kg/injection, schedule: Q## X001 (ip), vehicle: other): 205 % of control
T/C (dose: 30.5 mg/kg/injection, schedule: Q## X004 (ip), vehicle: other): 525 % of control
T/C (dose: 34.0 mg/kg/injection, schedule: Q02DX008 (ip), vehicle: other): 285 % of control and 398 % of control
T/C (dose: 36.0 mg/kg/injection, schedule: Q01DX001 (ip), vehicle: carboxymethylcellulose (CMC)): 259 % of control
T/C (dose: 40.0 mg/kg/injection, schedule: Q01DX001 (ip), vehicle: carboxymethylcellulose (CMC)): 235 % of control and 238 % of control
T/C (dose: 41.0 mg/kg/injection, schedule: Q01DX001 (ip), vehicle: other): 590 % of control
T/C (dose: 41.0 mg/kg/injection, schedule: Q## X001 (oral), vehicle: other): 403 % of control
T/C (dose: 45.6 mg/kg/injection, schedule: Q## X004 (ip), vehicle: other): 289 % of control and 481 % of control
T/C (dose: 46.0 mg/kg/injection, schedule: Q01DX001 (ip), vehicle: carboxymethylcellulose (CMC)): 329 % of control
T/C (dose: 48.0 mg/kg/injection, schedule: Q01DX001 (ip), vehicle: other): 384 % of control
T/C (dose: 48.0 mg/kg/injection, schedule: Q01DX001 (oral), vehicle: other): 476 % of control
T/C (dose: 48.0 mg/kg/injection, schedule: Q01DX001 (sc), vehicle: other): 382 % of control
T/C (dose: 48.0 mg/kg/injection, schedule: Q## X008 (oral), vehicle: other): 471 % of control
T/C (dose: 48.0 mg/kg/injection, schedule: Q## X024 (oral), vehicle: other): 448 % of control
T/C (dose: 54.4 mg/kg/injection, schedule: Q## X032 (ip), vehicle: other): 377 % of control
T/C (dose: 55.0 mg/kg/injection, schedule: Q01DX001 (oral), vehicle: other): 174 % of control and 245 % of control
T/C (dose: 55.0 mg/kg/injection, schedule: Q## X001 (oral), vehicle: other): 204 % of control
T/C (dose: 60.0 mg/kg/injection, schedule: Q01DX001 (ip), vehicle: carboxymethylcellulose (CMC)): 296 % of control and 304 % of control and 329 % of control
T/C (dose: 60.0 mg/kg/injection, schedule: Q01DX009 (sc), vehicle: other): 95 % of control
T/C (dose: 60.0 mg/kg/injection, schedule: Q## X003 (ip), vehicle: other): 105 % of control
T/C (dose: 61.0 mg/kg/injection, schedule: Q01DX001 (ip), vehicle: carboxymethylcellulose (CMC)): 329 % of control
T/C (dose: 61.0 mg/kg/injection, schedule: Q## X001 (ip), vehicle: other): 320 % of control and 527 % of control
T/C (dose: 68.0 mg/kg/injection, schedule: Q## X004 (ip), vehicle: other): 180 % of control and 221 % of control
T/C (dose: 91.5 mg/kg/injection, schedule: Q01DX001 (ip), vehicle: carboxymethylcellulose (CMC)): 164 % of control
T/C (dose: 91.5 mg/kg/injection, schedule: Q01DX001 (ip), vehicle: other): 237 % of control and 491 % of control
T/C (dose: 93.0 mg/kg/injection, schedule: Q01DX001 (ip), vehicle: carboxymethylcellulose (CMC)): 108 % of control
T/C (dose: 96.0 mg/kg/injection, schedule: Q01DX001 (ip), vehicle: other): 96 % of control
T/C (dose: 96.0 mg/kg/injection, schedule: Q01DX001 (sc), vehicle: other): 420 % of control
T/C (dose: 96.0 mg/kg/injection, schedule: Q## X008 (oral), vehicle: other): 225 % of control
T/C (dose: 120.0 mg/kg/injection, schedule: Q## X003 (oral), vehicle: other): 102 % of control

COc1nccc(SC)n1
T/C (dose: 95.0 mg/kg/injection, schedule: Q04DX003 (ip), vehicle: Klucel (hydroxypropylcellulose) (HPC)): 110 % of control
T/C (dose: 100.0 mg/kg/injection, schedule: Q04DX003 (ip), vehicle: Klucel (hydroxypropylcellulose) (HPC)): 107 % of control and 91 % of control
T/C (dose: 135.0 mg/kg/injection, schedule: Q04DX003 (ip), vehicle: Klucel (hydroxypropylcellulose) (HPC)): 105 % of control
T/C (dose: 200.0 mg/kg/injection, schedule: Q04DX003 (ip), vehicle: Klucel (hydroxypropylcellulose) (HPC)): 96 % of control and 97 % of control

Source: PubChem BioAssay AID248 (DTP/NCI, 2004)
